Results published in patent US10570184B2, “GLP-1/glucagon receptor co-agonists for medical use” (Novo Nordisk A/S, priority 2014, dated 2020).
Starred links: 1 amine or outer side, 2 acyl side, 3 side chain; linkers in the order of their positions; H or OH if unused. Non-standard residues stand in square brackets, D forms with d. Residues, ends and D or L forms follow the SMILES beside them. Groups on a side chain read outwards from the residue. *: point of attachment. C18 diacid = O=C(O)CCCCCCCCCCCCCCCCC(=O)*; γGlu = O=C(O)[C@H](CCC(=O)[*:2])N[*:1]; AEEA = NCCOCCOCC(=O)O; Aib = CC(C)(N)C(=O)O

Columns and labels:
human GLP-1 receptor [1] = target: T1, human GLP-1 receptor (Homo sapiens, UniProt P43220); assay: Assay (II)(a) GLP-1 receptor binding, 125I-GLP-1 displacement SPA on BHK membranes; details: without presence of serum albumin; read-out: GLP-1R IC50 (nM) [Assay (II)(a)]
T1 construct: expressed in transfected cells; host or cells: membranes of BHK cells (parent BHKTS13), clone FCW467-12A
T1 sequence (P43220 24-463): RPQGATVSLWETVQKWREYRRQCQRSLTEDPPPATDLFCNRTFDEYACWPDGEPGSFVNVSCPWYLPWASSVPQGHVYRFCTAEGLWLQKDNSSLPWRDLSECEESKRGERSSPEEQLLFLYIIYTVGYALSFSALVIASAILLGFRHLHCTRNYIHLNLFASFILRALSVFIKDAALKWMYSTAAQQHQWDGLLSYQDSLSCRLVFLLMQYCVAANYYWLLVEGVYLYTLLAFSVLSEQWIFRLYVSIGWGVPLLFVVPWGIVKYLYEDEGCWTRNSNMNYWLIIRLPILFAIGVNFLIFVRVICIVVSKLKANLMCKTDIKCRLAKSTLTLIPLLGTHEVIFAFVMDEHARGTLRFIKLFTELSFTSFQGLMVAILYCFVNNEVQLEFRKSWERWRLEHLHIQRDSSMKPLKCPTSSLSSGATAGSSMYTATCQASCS
Procedure: The GLP-1 receptor (GLP-1R) binding is a measure of affinity of a compound for the human GLP-1 receptor. The receptor binding of each compound to the human GLP-1 receptor was measured in a displacement binding assay. In this type of assay a labelled ligand (in this case 125I-GLP-1) is bound to the receptor. Each derivative was added in a series of concentrations to isolated membranes containing the human GLP-1 receptor and displacement of the labelled ligand was monitored. The receptor binding was reported as the concentration at which half of the labelled ligand was displaced from the receptor, the IC50 value. In order to test the binding of the derivatives to albumin, the assay may be performed in a very low concentration of serum albumin (max. 0.001% final assay concentration) as well as in the presence of a (considerably) higher concentration of serum albumin (2.0% final assay concentration). An increase of the IC50 value, in the presence of serum albumin indicates an affinity to serum albumin and represents a method to predict a protracted pharmacokinetic profile of the test substance in animal models. The following chemicals were used in the assay: DMEM w/o phenol red (Gibco 11880-028), Pen/strep (Invitrogen 15140-122), G418 (Invitrogen 10131-027), 1 M Hepes (Gibco 15630), EDTA (Invitrogen 15575-038), PBS (Invitrogen 14190-094), fetal calf serum (Invitrogen 16140-071), EGTA, MgCl2 (Merck 1.05832.1000), Tween 20 (Amresco 0850C335), SPA particles (wheat germ agglutinin (WGA) SPA beads, Perkin Elmer RPNQ0001), [125I]-GLP-1]-(7-36)NH2 (produced in-house), OptiPlate™-96 (Perkin Elmer). Buffer 1 consisted of 20 mM Na-HEPES plus 10 mM EDTA and pH was adjusted to 7.4. Buffer 2 consisted of 20 mM Na-HEPES plus 0.1 mM EDTA and pH was adjusted to 7.4. Assay buffer consisted of 50 mM HEPES supplemented with 5 mM EGTA, 5 mM MgCl2, 0.005% Tween 20 and pH was adjusted to 7.4. The cells used in this assay (clone FCW467-12A) were BHK cells with BHKTS13 as a parent cell line. The cells express the human GLP-1 receptor. The cells were grown at 5% CO2 in DMEM, 10% fetal calf serum, 1% Pen/Strep (Penicillin/Streptomycin) and 1.0 mg/ml of the selection marker G418. To make a membrane preparation the cells were grown to approximately 80% confluence. The cells were washed twice in phosphate-buffered saline and harvested. The cells were pelleted using a brief centrifugation and the cell pellet was kept on ice. The cell pellet was homogenised with ULTRA-THURRAX dispersing instrument for 20-30 seconds in a suitable amount of buffer 1 (e.g., 10 ml). The homogenate was centrifuged for 15 minutes. The pellet was re-suspended (homogenised) in 10 ml buffer 2 and centrifuged. This step was repeated once more. The resulting pellet was re-suspended in buffer 2 and the protein concentration was determined. The membranes were aliquoted and stored at minus 80° C. • 1. For the receptor binding assay, 50 μl of the assay buffer was added to each well of an assay plate. • 2. Test compounds were serially diluted to give the following concentrations: 8×10EE-7 M, 8×10EE-8 M, 8×10EE-9 M, 8×10EE-10 M, 8×10EE-11 M, 8×10EE-12 M and 8×10EE-13 M. Twenty-five μl were added to appropriate wells in the assay plate. • 3. Cell membrane aliquots were thawed and diluted to their working concentration. Fifty μl were added to each well in the assay plate. • 4. WGA SPA beads were suspended in assay buffer at 20 mg/ml. The suspension was diluted to 10 mg/ml in assay buffer just prior to addition to the assay plate. Fifty μl were added to each well in the assay plate. • 5. The incubation was started by adding 25 μl of […] solution of [125I]-GLP-1]-(7-36)NH2 to each well of the assay plate. A 25 μl aliquot was reserved for measuring total counts/well. • 6. The assay plate was incubated for 2 h at 30° C. • 7. The assay plate was centrifuged for 10 min. • 8. The assay plate was read in a Perkin Elmer TopCount NXT instrument. […]

human GLP-1 receptor [2] = target: T1, human GLP-1 receptor; assay: Assay (I)(a) GLP-1 receptor activation, CRE luciferase reporter gene assay in BHK cells; assay type: cell-based; details: without presence of serum albumin; read-out: GLP-1R EC50 (pM) [Assay (I)(a)]
Procedure: The purpose of this example was to test the activity or potency, of the glucagon derivatives of the invention, in vitro. The in vitro potency is the measure of human GLP-1 receptor (GLP-1R) or glucagon receptor (glucagonR) activation, respectively, in a whole cell assay. In vitro potency was determined by measuring the response of human GLP-1 or glucagon receptor, respectively, in a reporter gene assay. The assay was performed in a stably transfected BHK cell line that expresses either the human GLP-1 receptor or the human glucagon receptor and contains the DNA for the cAMP response element (CRE) coupled to a promoter and the gene for firefly luciferase (CRE luciferase). […] When assay incubation was completed, the luciferase substrate (luciferin) was added and the enzyme converted luciferin to oxyluciferin and produces bioluminescence. The luminescence was measured as the readout for the assay. The cells used in this assay (clone FCW467-12A/KZ10-1) were BHK cells with BHKTS13 as a parent cell line. The cells were derived from a clone (FCW467-12A) that expresses the human GLP-1 receptor and were established by further transfection with CRE luciferase to obtain the current clone. The cells were cultured at 5% CO2 in DMEM medium with 10% FBS, 1×GlutaMAX, 1 mg/ml G418, 240 nM MTX (methotrexate) and 1% pen/strep (penicillin/streptomycin). They were aliquoted and stored in liquid nitrogen. Before each assay, an aliquot was taken up and washed three times in PBS before being suspended at the desired concentration in assay medium. For 96-well plates the suspension was made to give a final concentration of 5×10EE3 cells/well. The following chemicals were used in the assay: Pluronic F-68 (10%) (Gibco 2404), ovalbumin (Sigma A5503), DMEM w/o phenol red (Gibco 11880-028), 1 M Hepes (Gibco 15630), Glutamax 100× (Gibco 35050) and steadylite plus (PerkinElmer 6016757). Assay Medium consisted of DMEM w/o phenol red, 10 mM Hepes, 1× GlutaMAX, 2% Ovalbumin and 0.2% Pluronic F-68. Cell stocks were thawed in a 37° C. water bath. Cells were washed three times in PBS. The cells were counted and adjusted to 5×10EE3 cells/50 μl (1×10EE5 cells/ml) in Assay Medium. A 50 μl aliquot of cells was transferred to each well in the assay plate. Stocks of the test compounds and reference compounds were diluted to a concentration of […] in Assay Medium. Compounds were diluted 10-fold to give the following concentrations: 2×10EE-6 M, 2×10EE-7 M, 2×10EE-8 M; 2×10EE-9 M, 2×10EE-10 M, 2×10EE-11 M, 2×10EE-12 M and 2×10EE-13 M. For each compound a blank assay medium control was also included. A 50 μl aliquot of compound or blank was transferred from the dilution plate to the assay plate. Compounds were tested at the following final concentrations: 1×10EE-6 M, 1×10EE-7 M, 1×10EE-8 M; 1×10EE-9 M, 1×10EE-10 M, 1×10EE-11 M and 1×10EE-12 M and 1×10EE-13 M. The assay plate was incubated for 3 h in a 5% CO2 incubator at 37° C. The assay plate was removed from the incubator and allowed to stand at room temperature for 15 min. A 100 μl aliquot of steadylite plus reagent was added to each well of the assay plate (reagent is light sensitive). Each assay plate was covered with aluminum foil to protect it from light and shaken for 30 min at room temperature. Each assay plate was read in a Perkin Elmer TopCount NXT instrument. The data from the TopCount instrument was transferred to GraphPad Prism software. The software performed a non-linear regression (log(agonist) vs response-Variable slope (four parameter)). EC50 values were calculated by the software and reported in pM.

Compound | IC50 (human GLP-1 receptor [1]) [nM] | EC50 (human GLP-1 receptor [2]) [pM]
CC[C@H](C)[C@H](NC(=O)[C@H](CC(C)C)NC(=O)[C@H](Cc1c[nH]c2ccccc12)NC(=O)[C@H](CCCCNC(=O)COCCOCCNC(=O)COCCOCCNC(=O)CC[C@H](NC(=O)CC[C@H](NC(=O)CC[C@H](NC(=O)CCCCCCCCCCCCCCCCC(=O)O)C(=O)O)C(=O)O)C(=O)O)NC(=O)[C@@H](NC(=O)[C@H](Cc1ccccc1)NC(=O)[C@H](CCC(=O)O)NC(=O)[C@H](CCCNC(=N)N)NC(=O)[C@H](C)NC(=O)[C@H](CCCNC(=N)N)NC(=O)[C@H](CCCCN)NC(=O)[C@H](C)NC(=O)[C@H](CC(=O)O)NC(=O)[C@H](CC(C)C)NC(=O)[C@H](Cc1ccc(O)cc1)NC(=O)[C@H](CCCCN)NC(=O)[C@H](CO)NC(=O)[C@H](Cc1ccc(O)cc1)NC(=O)[C@H](CC(=O)O)NC(=O)[C@H](CO)NC(=O)[C@@H](NC(=O)[C@H](Cc1ccccc1)NC(=O)[C@@H](NC(=O)CNC(=O)[C@H](CCC(N)=O)NC(=O)C(C)(C)NC(=O)[C@@H](N)Cc1c[nH]cn1)[C@@H](C)O)[C@@H](C)O)C(C)C)C(=O)N[C@@H](CO)C(=O)N[C@H](C(N)=O)[C@@H](C)O [Chem. 2, N^ε24-[2-[2-[2-[[2-[2-[2-[[(4S)-4-carboxy-4-[[(4S)-4-carboxy-4-[[(4S)-4-carboxy-4-(17-carboxyheptadecanoylamino)butanoyl]amino]butanoyl]amino]butanoyl]amino]ethoxy]ethoxy]acetyl]amino]ethoxy]ethoxy]acetyl]-[Aib2,Ala16,Lys17,Arg20,Glu21,Lys24,Ile27,Ser28]-Glucagon amide] (H-H[Aib]QGTFTSDYSKYLDAKRAREFVK([AEEA-AEEA-γGlu-γGlu-γGlu-C18 diacid])WLIST-NH2; N-terminus assumed) | 0.3 | 2
CC[C@H](C)[C@H](NC(=O)[C@H](CC(C)C)NC(=O)[C@H](Cc1c[nH]c2ccccc12)NC(=O)[C@H](CCC(N)=O)NC(=O)[C@@H](NC(=O)[C@H](Cc1ccccc1)NC(=O)[C@H](CC(=O)O)NC(=O)[C@H](CCCNC(=N)N)NC(=O)[C@H](C)NC(=O)[C@H](CCCNC(=N)N)NC(=O)[C@H](CCCNC(=N)N)NC(=O)[C@H](CO)NC(=O)[C@H](CCC(=O)O)NC(=O)[C@H](CC(C)C)NC(=O)[C@H](Cc1ccc(O)cc1)NC(=O)[C@H](CCCCN)NC(=O)[C@H](CO)NC(=O)[C@H](CC(C)C)NC(=O)[C@H](CC(=O)O)NC(=O)[C@H](CO)NC(=O)[C@@H](NC(=O)[C@H](Cc1ccccc1)NC(=O)[C@@H](NC(=O)CNC(=O)[C@H](CCC(N)=O)NC(=O)C(C)(C)NC(=O)[C@@H](N)Cc1c[nH]cn1)[C@@H](C)O)[C@@H](C)O)C(C)C)C(=O)N[C@@H](CCCCNC(=O)COCCOCCNC(=O)COCCOCCNC(=O)CC[C@H](NC(=O)CC[C@H](NC(=O)CC[C@H](NC(=O)CCCCCCCCCCCCCCCCC(=O)O)C(=O)O)C(=O)O)C(=O)O)C(=O)N[C@H](C(N)=O)[C@@H](C)O [Chem. 3, N^ε28-[2-[2-[2-[[2-[2-[2-[[(4S)-4-carboxy-4-[[(4S)-4-carboxy-4-[[(4S)-4-carboxy-4-(17-carboxyheptadecanoylamino)butanoyl]amino]butanoyl]amino]butanoyl]amino]ethoxy]ethoxy]acetyl]amino]ethoxy]ethoxy]acetyl]-[Aib2,Leu10,Glu15,Arg20,Ile27,Lys28]-Glucagon amide] (H-H[Aib]QGTFTSDLSKYLESRRARDFVQWLIK([AEEA-AEEA-γGlu-γGlu-γGlu-C18 diacid])T-NH2; N-terminus assumed) | 0.1 | 2
